Measured values from patent US4000147A, “Anhydro-2-mercapto-1,3,4-thiadiazolium hydroxides” (BASF Aktiengesellschaft, priority 1974, dated 1976).
Read-outs that look alike come from different tables or passages of the source.

What was measured:
[1] = test system: clonic cramps caused by Pentetrazol; assay: anti-convulsive action against clonic spasms caused by Pentetrazol (60 mg/kg s.c.), inclined screen (Table 2); format: in vivo, female Swiss mice; settings: Mus musculus, mice, oral, 30 minutes before s.c. 60 mg/kg Pentetrazol
Method: As a pharmacological test of the anti-convulsive action against clonic spasms caused by Pentetrazol, the test substances were administered orally to groups of from 8 to 10 female Swiss mice weighing from 20 to 25 g, 30 minutes before subcutaneous administration of 60 mg/kg of Pentetrazol.
In the untreated animals, this dose of Pentetrazol caused clonic cramps, as a result of which the mice slid off an inclined screen.
Anti-convulsive agents prevent the cramps and the sliding off the screen, the degree of prevention depending on the dose. The ED50 was taken to be the dose after administration of which 50% of the treated animals remained on the screen.
^1) Action against clonic cramps caused by Pentetrazol in mice. Oral
administration 30 minutes before subcutaneous administration of 60 mg/kg

[2] = acute toxicity, intraperitoneal (Table 2); settings: mouse, in vivo, ip, mice, approximate values
Text: ^2) Mice. Intraperitoneal administration. Approximate values

[3] = test system: maximum Pentetrazol-induced extension; assay: maximum tonic extension spasm after subcutaneous administration of 121 mg/kg of Pentetrazol (Table 3); format: in vivo, mice; settings: for ED50: Mus musculus, read-out: Maximum Pentetrazol-induced extension, ED50
in vivo = settings: for LD50: mouse, in vivo
Method: The comparative experiments in Table 3 were carried out with anhydro-2-mercapto-4-methyl-5-(3'-chlorophenyl)-1,3,4-thiadiazolium hydroxide, referred to as substance A in the Table and in the subsequent text.

[4] = test system: minimum Pentetrazol-induced cramp; assay: minimum clonic cramp after subcutaneous administration of 70 mg/kg of Pentetrazol (Table 3); format: in vivo, mice; settings: for ED50: Mus musculus, 0.75 h, read-out: Minimum Pentetrazol-induced cramp, ED50
maximum electric shock = assay: maximum tonic electro-induced cramp (Table 3); format: in vivo, mice; settings: for ED50: Mus musculus, read-out: Maximum electric shock, ED50
[5] = mice, oral, 121 mg/kg Pentetrazol s.c.
[6] = mice, oral, 70 mg/kg Pentetrazol s.c., observed 45 minutes after Pentetrazol
[7] = mice, oral, tonic cramps induced by electric shock

Compound: C[n+]1nc([S-])sc1-c1ccccc1F
- ED50 [1]: 10 mg/kg
- LD50 [2]: > 1000 mg/kg

Compound: C[n+]1nc([S-])sc1-c1cccc(F)c1
- ED50 [1]: 2.2 mg/kg
- LD50 [2]: 1000 mg/kg

Compound: C[n+]1nc([S-])sc1-c1ccc(F)cc1
- ED50 [1]: 2.2 mg/kg
- LD50 [2]: > 1000 mg/kg

Compound: C[n+]1nc([S-])sc1-c1ccc(Br)cc1
- ED50 [1]: 46 mg/kg
- LD50 [2]: > 1000 mg/kg

Compound: CCC[n+]1nc([S-])sc1-c1ccc(Cl)cc1
- ED50 [1]: 32 mg/kg
- LD50 [2]: 681 mg/kg

Compound: CCC[n+]1nc([S-])sc1-c1ccccc1
- ED50 [1]: 22 mg/kg
- LD50 [2]: 68.1 mg/kg

Compound: C[n+]1nc([S-])sc1-c1cccc(C(F)(F)F)c1
- ED50 [1]: 0.46 mg/kg
- LD50 [2]: 681 mg/kg

Compound: CCC1(c2ccccc2)C(=O)NC(=O)NC1=O [Phenobarbital]
- ED50 ([3]; po): 22 mg/kg
- activity in tonic cramp induced by Pentetrazol, relative to substance A ([3]; in words): about twice as active
- LD50 (in vivo): 320 mg/kg
- ED50 ([4]; po): 30 mg/kg
- ED50 (maximum electric shock; po): 11 mg/kg
- activity in cramp induced by electric shock, relative to substance A (maximum electric shock; in words): about twice as active

Compound: O=C1NC(=O)C(c2ccccc2)(c2ccccc2)N1 [Phenytoin]
- ED50 [3, 5]: 22 mg/kg
- activity against clonic spasms induced by Pentetrazol ([4]; in words): inactive
- Minimum Pentetrazol-induced cramp, ED50 [4, 6]: inactive
- ED50 (maximum electric shock; [7]): 8 mg/kg

Compound: C[n+]1nc([S-])sc1-c1cccc(Cl)c1 [Substance A, anhydro-2-mercapto-4-methyl-5-(3'-chlorophenyl)-1,3,4-thiadiazolium hydroxide]
- ED50 [3, 5]: 10 mg/kg
- toxicity compared with Phenobarbital and Phenytoin (in vivo; in words): markedly less than that of Phenobarbital and Phenytoin
- LD50 (in vivo): > 1000 mg/kg
- ED50 [4, 6]: 7 mg/kg
- activity in counteracting clonic spasms induced by Pentetrazol, compared with Phenobarbital and Phenytoin ([4]; in words): more active in counteracting clonic spasms induced by Pentetrazol than is Phenobarbital and above all than is Phenytoin
- ED50 (maximum electric shock; [7]): 23 mg/kg

Compound: CN1C(=O)OC(C)(C)C1=O [Trimethadion]
- ED50 [3, 5]: 260 mg/kg
- times less active than substance A, tonic cramp test ([3]; tonic cramp test): more than 20 times
- LD50 (in vivo): > 1000 mg/kg
- ED50 [4, 6]: 240 mg/kg
- times less active than substance A, clonic cramp test ([4]; clonic cramp test): more than 20 times
- ED50 (maximum electric shock; [7]): 450 mg/kg

Compound: C[n+]1nc([S-])sc1-c1cccc(Cl)c1 [drawing 15]
- ED50 [1]: 3.2 mg/kg
- LD50 [2]: > 1000 mg/kg
